Among the data in patent US8710060B2, “Piperazinyl methyl phenyl cyclohexane compound” (Daiichi Sankyo Company, Limited, priority 2010, dated 2014) are EC50 values, retold here.

pEC50: −log10 of the molar value. Where a name gives a salt, the structure may show the parent alone.

The test system of this assay is longitudinal muscle strip from the duodenal smooth muscle layer. As to the kind of experiment: Measurement of intestinal contractile activity (Magnus organ bath, cumulative dosing). The following applies: Oryctolagus cuniculus; male NZW rabbit duodenal longitudinal muscle strip, Krebs solution 31° C., test compound 0.01 nM to 10 μM cumulative dosing; contraction by carbachol 10 μM taken as 100%. The protocol: Bioactivity Test (Measurement of Intestinal Contractile Activity)
A male NZW rabbit (body weight: 2.5 to 3.0 kg, KITAYAMA LABES CO., LTD., NAGANO) was used.
Carbachol (carbamylcholine chloride, Sigma-Aldrich Japan K.K.) was purchased and used. Each test compound was dissolved in dimethyl sulfoxide (DMSO, Sigma-Aldrich Japan K.K.), and then suspended in physiological saline. Carbachol was dissolved in physiological saline.
(3) Experimental Method and Results
Pentobarbital sodium (Kyoritsu Seiyaku Corporation, Osaka) was administered to the rabbit through the auricular vein, and the rabbit was euthanized by exsanguination under anesthesia. Thereafter, the duodenum was excised from the rabbit and rapidly rinsed with Krebs solution (NaCl 120.0 mM, KCl 4.7 mM, CaCl2 2.4 mM, KH2PO4 1.0 mM, MgSO4 1.2 mM, NaHCO3 24.5 mM, and glucose 5.6 mM, pH 7.4). Then, a longitudinal muscle strip (length: 10 mm, width: 3 mm) was prepared from the duodenal smooth muscle layer obtained by stripping off the mucosal layer from the duodenum. The prepared strip was mounted in an organ bath and contained in 20 mL of Krebs solution gassed with 95% O2 and 5% CO2 at 31° C. so as to suppress excessive locomotion, and a tension of 1 g was applied thereto. The strip was left to stand for 1 hour or more while replacing the Krebs solution every 15 minutes until the strip was equilibrated. Before starting the experiment, stimulation with carbachol at 10 μM was repeatedly applied until a reproducible contraction was obtained. The contractile activity was measured with an FD pickup (TB-611T, Nihon Kohden Corporation, Tokyo) and recorded on a pen recorder (RECTI HORIZ-8K, Sanei, Tokyo). Each test compound was added to the Krebs solution at 0.01 nM to 10 μM, and the strip was contracted by cumulative dosing. The contractile activity at each concentration was determined when the contractile activity at the time of stimulation with carbachol at 10 μM was taken as 100%, and the EC50 value of each test compound was determined. The EC50 values are shown below.
The compound `Cc1cc(N(C)C(=O)[C@H]2CC[C@H](Nc3cccc(COCC(C)(C)O)c3)CC2)ccc1CN1CCN[C@@H](C)C1` [Example 58, Trans-4-({3-[(2-hydroxy-2-methylpropoxy)methyl]phenyl}amino)-N-methyl-N-(3-methyl-4-{[(3S)-3-methylpiperazin-1-yl]methyl}phenyl)cyclohexanecarboxamide hydrochloride] had a pEC50 of 9.05.
The figure for `Cc1cc(N(C)C(=O)[C@H]2CC[C@H](Oc3cccc(CS(C)(=O)=O)c3)CC2)ccc1CN1CCN[C@@H](C)C1` [Example 42, hydrochloride] is 8.32.
The figure for `Cc1cc(N(C)C(=O)[C@H]2CC[C@H](Oc3cccc(CC(=O)NC(C)C)c3)CC2)ccc1CN1CCN[C@@H](C)C1` [Example 30, Trans-4-{3-[2-(isopropylamino)-2-oxoethyl]phenoxy}-N-methyl-N-(3-methyl-4-{[(3S)-3-methylpiperazin-1-yl]methyl}phenyl)cyclohexanecarboxamide hydrochloride] is 8.52.
`C[C@H]1CN(Cc2ccc(N(C)C(=O)[C@H]3CC[C@H](Oc4ccc(F)cc4)CC3)cc2)CCN1` [Example 1, Trans-4-(4-fluorophenoxy)-N-methyl-N-(4-{[(3S)-3-methylpiperazin-1-yl]methyl}phenyl)cyclohexanecarboxamide] had a pEC50 of 7.55. Compared with the last compound, the pEC50 is 0.97 log units lower.
The figure for `Cc1cc(N(C)C(=O)[C@H]2CC[C@H](Oc3cccc(CC(=O)N(C)C(C)C)c3)CC2)ccc1CN1CCN[C@@H](C)C1` [Example 34, Trans-4-(3-{2-[isopropyl(methyl)amino]-2-oxoethyl}phenoxy)-N-methyl-N-(3-methyl-4-{[(3S)-3-methylpiperazin-1-yl]methyl}phenyl)cyclohexanecarboxamide] is 8.68; for `Cc1cc(N(C)C(=O)[C@H]2CC[C@H](Oc3cccc(CC(=O)NC(C)(C)C)c3)CC2)ccc1CN1CCN[C@@H](C)C1` [Example 33, Trans-4-{3-[2-(tert-butylamino)-2-oxoethyl]phenoxy}-N-methyl-N-(3-methyl-4-{[(3S)-3-methylpiperazin-1-yl]methyl}phenyl)cyclohexanecarboxamide] it is 8.82.
In the case of `CCOC(=O)Cc1cccc(O[C@H]2CC[C@H](C(=O)N(C)c3ccc(CN4CCN[C@@H](C)C4)c(C)c3)CC2)c1` [Example 16, Ethyl [3-({trans-4-[methyl(3-methyl-4-{[(3S)-3-methylpiperazin-1-yl]methyl}phenyl)carbamoyl]cyclohexyl}oxy)phenyl]acetate hydrochloride], the pEC50 is 8.62.
The figure for `Cc1cc(N(C)C(=O)[C@H]2CC[C@H](Oc3ccc(F)cn3)CC2)ccc1CN1CCN[C@@H](C)C1` [Example 4, Trans-4-[(5-fluoropyridin-2-yl)oxy]-N-methyl-N-(3-methyl-4-{[(3S)-3-methylpiperazin-1-yl]methyl}phenyl)cyclohexanecarboxamide hydrochloride] is 8.60; for `Cc1cc(N(C)C(=O)[C@H]2CC[C@H](Oc3cccc(COCC(C)(C)O)c3)CC2)ccc1CN1CCN[C@@H](C)C1` [Example 57, Trans-4-{3-[(2-hydroxy-2-methylpropoxy)methyl]phenoxy}-N-methyl-N-(3-methyl-4-{[(3S)-3-methylpiperazin-1-yl]methyl}phenyl)cyclohexanecarboxamide hydrochloride] it is 7.95; for `Cc1cc(N(C)C(=O)[C@H]2CC[C@H](Oc3cccc(CO)c3)CC2)ccc1CN1CCN[C@@H](C)C1` [Example 5, Trans-4-[3-(hydroxymethyl)phenoxy]-N-methyl-N-(3-methyl-4-{[(3S)-3-methylpiperazin-1-yl]methyl}phenyl)cyclohexanecarboxamide hydrochloride] it is 8.14.
The figure for `Cc1cc(N(C)C(=O)[C@H]2CC[C@H](Oc3ccnc(C#N)c3)CC2)ccc1CN1CCN[C@@H](C)C1` [Example 22, Trans-4-[(2-cyanopyridin-4-yl)oxy]-N-methyl-N-(3-methyl-4-{[(3S)-3-methylpiperazin-1-yl]methyl}phenyl)cyclohexanecarboxamide hydrochloride] is 8.32; for `COCCOCc1cccc(O[C@H]2CC[C@H](C(=O)N(C)c3ccc(CN4CCN[C@@H](C)C4)c(C)c3)CC2)c1` [Example 53, Trans-4-{3-[(2-methoxyethoxy)methyl]phenoxy}-N-methyl-N-(3-methyl-4-{[(3S)-3-methylpiperazin-1-yl]methyl}phenyl)cyclohexanecarboxamide hydrochloride] it is 8.17.
The figure for `Cc1cc(N(C)C(=O)[C@H]2CC[C@H](Oc3cccc(COC[C@@H](C)O)c3)CC2)ccc1CN1CCN[C@@H](C)C1` [Example 56, Trans-4-[3-({[(2R)-2-hydroxypropyl]oxy}methyl)phenoxy]-N-methyl-N-(3-methyl-4-{[(3S)-3-methylpiperazin-1-yl]methyl}phenyl)cyclohexanecarboxamide hydrochloride] is 8.92.
